# Experimental data: patent US6723897B2, “Methods for controlling gibberellin levels” (Monsanto Technology, LLC, priority 1998, dated 2004)
# Values joined by “and” are separate entries in the source; they are usually repeats but may differ in a detail not shown here. Identical values can stand only once.
# Assays:
# [1] = test system: wild-type (A3237) soybean; experiment: Hilum treatment with GA15, GA19, GA24, GA44, hypocotyl length, wild-type soybean; conditions: 10 μg/seed, 5 DAP
# Experimental: The purpose of this experiment is to evaluate potential gibberellin rescue agents occurring at an intermediate or middle portion of the gibberellin biosynthesis pathway (between GA53/GA12 and GA20/GA9) as seed treatments. These GA compounds are tested using hilum treatment and comparing activity on GA-deficient soybean plants and normal (wild-type) plants.
# Wild-type A3237 soybeans are obtained from Asgrow Seed Company. Transgenic seeds are fifth generation (R5) line 719 seeds.
# The GA compounds are dissolved in absolute ethanol at a concentration of approximately 10 μg/ml. Compounds are applied to the hilum of dry soybean seed as 1 μl drops. Seeds are sown in 4-inch plastic pots (2 pots per treatment; 5 seeds/pot) containing commercial potting soil (Metromix 200) placed in a greenhouse set for 12 hr light, and day and night temperatures of 85° F. (29° C.) and 75° F. (24° C.), respectively. After all treatments are emerged (5 DAP), hypocotyl length is measured.
# [2] = test system: asCPScc soybean lines 696, 719, 720 and 724; experiment: Seed yield of asCPScc soybean lines treated with GA3; format: in vivo, Glycine max
# Experimental: One hundred nine soybean plants from four […] lines (696, 719, 720 and 724) identified with GA-deficient phenotypes are grown to maturity and the seed harvested. Three of the lines (696, 719 and 720) required weekly spraying with GA3 to restore normal vegetative growth. […] Seed yield, seed weight per seed, pod number and seeds/pod data are collected for each plant. Data is collected in three groups for each line: plants that are wild-type; plants that are dwarfs and received no exogenous GA; and plants that are treated with exogenous GA3. […] Line 724 dwarf plants produces equivalent yields to the wild-type plants within this line without any external spraying. […] Line 724 has no reduction in seed weight in dwarfs without supplying exogenous GA.
# [3] = test system: ancymidol-treated soybean; experiment: GA3 soil drench restoring seedling height in ancymidol-treated soybean; format: in vivo, Glycine max
# Text: For example, in side-by-side comparisons using soybean, the same dose of GA3 gives substantial differences in hypocotyl elongation depending on the method of application. The relative sensitivity can be: soil drench>hilum treatment>seed imbibition). Also, the dose of GA3, applied as a soil drench, that is needed to fully restore normal seedling height in ancymidol-treated soybean increases with time after planting (10^−7M at 4 DAP; greater than 10^−5 M at 11 DAP).
# [4] = test system: soybean (A3237) in sand saturated with 3 mg/L ancymidol; experiment: GA3 seed coating, reversal of ancymidol inhibition of soybean stature; format: in vivo, Glycine max; conditions: 3 mg GA3/kg seed (Release blended with talc); plant height at 6 DAP
# Experimental: The timing of emergence and plant stature at for transgenic (plasmid pMON29801, FMV/asCPScc) soybean line 724 is rescued by sowing seeds in soil saturated with 3×10^−6 M GA3. At 7 days after planting (DAP), the GA3 treatment to the seeds rescued plant stature to within 10% of the A3237 control. As an additional control, soybean (A3237) seeds are coated with different concentrations of a commercial formulation of GA3 (Release®) blended with talc and sown in sand saturated with 3 mg/L ancymidol and grown in a greenhouse. Plant height is measured at 6 DAP. […] This rate is equivalent to approximately 62 mg GA3 per acre (assuming 140,000 seeds/acre).
# [5] = test system: pMON34439 soybean lines 46 and 202; experiment: GA3 soil drench plus foliar spray on AX5/antisense CPScc seedlings; format: in vivo, Glycine max; conditions: 1×10^−6 M GA3 soil drench before planting plus foliar 1×10^−5 M GA3 spray
# Text: Two out of 59 transgenic soybean lines transformed with construct pMON34439 (AX5 promoter/antisense CPScc, FIG. 26), lines 46 and 202, show a reduced stature during early seedling growth and then resume normal vegetative growth. Twenty seeds of each line are sown in Metromix 350 soil in 3″ plastic pots in the greenhouse, approximately 40% of the seedlings are reduced in stature for line 46 and 25, 35% for line 202.
# [6] = Half-lives of 14C-labelled GA compounds in soil; conditions: spinks soil, aerobic, 25° C., darkness; read-out: Half-life (days) in soil (converted)
# Experimental: Metabolic studies in soil are conducted with ^14C-labelled GA compounds in order to investigate the route and rate of compound degradation in soil under aerobic conditions. ^14C-labelled GA compounds are obtained from Lew Mander (Australian National University). The ^14C-labelled compounds dissolved in 0.2-2 ml water:ethanol, 80:20, v/v, are applied to 50-60 gm portions of spinks soil (USDA classification Loamy Sand: 82% sand, 14% silt, and 4% clay) in 250 ml centrifuge bottles at a rate of 0.1-0.2 ppm (6-12 μg; approximately 1,200,000 dpm per soil sample. The soil samples are placed in a glass dessicator which served as a container for all soil bottles. The glass dessicator is connected to three separate trapping solutions in series, each containing 20 ml of ethylene glycol:ethanolamine, 2:1, v/v. Air is pulled into the glass dessicator and through the trapping solutions by house vacuum. The trapping solutions are used to collect ^14C-volatiles and ^14C-CO2. Soil samples are incubated for eight days at 25° C. in darkness. For most experiments, duplicate soil samples are harvested 0, 6, 12, 24, 46, 72, 120, and 192 hours after initial treatment. Soil samples are extracted twice with 100 ml of water:methanol, 20:80, v/v, and the combined extracts are analyzed by HPLC under the same conditions as described for the determination of half-lives of GA compounds in planta, above.
# [7] = test system: pMON29801 soybean line 719; experiment: Foliar GA3 spray, stature of FMV/asCPScc soybean; format: in vivo, Glycine max
# Text: A foliar spray of GA3 restores normal stature of Line 719 plants. GA3 restores normal vegetative development (Table 6) when sprayed on the foliage of GA-deficient dwarf plants during vegetative development at rates between 10^−4 and 10^−6 M plus a surfactant (Tween 20, 0.05% v/v).
# [8] = test system: wild-type soybean variety A4922; experiment: GA3 seed treatment, soybean stand count and yield in the field; format: in vivo, Glycine max
# Text: Treated seed is planted about 1 inch deep in previously disced soil using a cone planter. The rows are about 30 inches (76.2 cm) apart, and 15 feet (457.2 cm) long. Seeds are spaced about 3 inches (7.62 cm) apart within the rows. The emerged plants are counted periodically, and seed yields are obtained at harvest. The plant counts and yields are converted to a per acre basis. […] The decrease in plant population per acre is due to lack of emergence, in part due to broken and unhooked hypocotyls. In addition, some of the emerged plants are abnormal, e.g., with small, broken cotyledons, etc.
# [9] = 'no GA': single spray treatment at 21 DAP with GA, not further sprayed
# [10] = GA sprayed approximately every week starting at 21 DAP
compound,measurement,setting,value
"C=C1C[C@]23C[C@@]1(O)CC[C@H]2[C@@]12C=C[C@H](O)[C@@](C)(C(=O)O1)[C@H]2[C@@H]3C(=O)O [GA3, gibberellic acid]",hypocotyl elongation of wild-type (A3237) soybean (FIG. 41),[1],overelongation of A3237 hypocotyls
same,reduction of seed weight per seed,"[2]; dwarf plants, GA treatments",nearly completely rescued
same,"seed yield restored, % of the yield of the wild-types","[2]; dwarfs treated continuously with GA3, lines 696 and 719",70%
same,dose of GA3 needed to fully restore normal seedling height,[3]; 4 DAP,10^−7 M
same,dose of GA3 needed to fully restore normal seedling height,[3]; 11 DAP,greater than 10^−5 M
same,reversal of ancymidol inhibition of soybean stature,[4],Good reversal of ancymidol inhibition of soybean stature
same,normal growth rate of seedlings,[5],at least partially restored
same,half-life,[6],0.5 days
same,"Plant height (cm), 21 DAP",[7]; [9],2.0 cm and 2.5 cm
same,"Plant height (cm), 50 DAP",[7]; [9],13 cm
same,"Plant height (cm), 21 DAP",[7]; [10],2.5 cm
same,"Plant height (cm), 50 DAP",[7]; [10],61 cm and 56 cm
same,Plants per Acre,[8]; 5 ppm GA3 seed treatment,"41,458"
same,Yield (bushels/acre),[8]; 5 ppm GA3 seed treatment,41.6 bushels/acre
same,Plants per Acre,[8]; 10 ppm GA3 seed treatment,"35,133"
same,Yield (bushels/acre),[8]; 10 ppm GA3 seed treatment,31.9 bushels/acre
same,Plants per Acre,[8]; 15 ppm GA3 seed treatment,"30,566"
same,Yield (bushels/acre),[8]; 15 ppm GA3 seed treatment,31.4 bushels/acre
